From PMC8491401, “Phytochemical analysis, antioxidant and in vitro β-galactosidase inhibition activities of Juniperus phoenicea and Calicotome villosa methanolic extracts” (BMC Chemistry, 2021)
Like-named read-outs stand apart in the source and are kept apart here.

Columns and labels:
[1] = target: T1, β-Galactosidase from Aspergillus oryzae (Aspergillus oryzae, UniProt Q2UCU3); assay: ONPG hydrolysis, absorbance at […] nm; type: biochemical
T1 construct: gene lacA; commercial enzyme from Sigma-Aldrich, secreted fungal enzyme; construct details not given
T1 sequence (Q2UCU3 19-1005): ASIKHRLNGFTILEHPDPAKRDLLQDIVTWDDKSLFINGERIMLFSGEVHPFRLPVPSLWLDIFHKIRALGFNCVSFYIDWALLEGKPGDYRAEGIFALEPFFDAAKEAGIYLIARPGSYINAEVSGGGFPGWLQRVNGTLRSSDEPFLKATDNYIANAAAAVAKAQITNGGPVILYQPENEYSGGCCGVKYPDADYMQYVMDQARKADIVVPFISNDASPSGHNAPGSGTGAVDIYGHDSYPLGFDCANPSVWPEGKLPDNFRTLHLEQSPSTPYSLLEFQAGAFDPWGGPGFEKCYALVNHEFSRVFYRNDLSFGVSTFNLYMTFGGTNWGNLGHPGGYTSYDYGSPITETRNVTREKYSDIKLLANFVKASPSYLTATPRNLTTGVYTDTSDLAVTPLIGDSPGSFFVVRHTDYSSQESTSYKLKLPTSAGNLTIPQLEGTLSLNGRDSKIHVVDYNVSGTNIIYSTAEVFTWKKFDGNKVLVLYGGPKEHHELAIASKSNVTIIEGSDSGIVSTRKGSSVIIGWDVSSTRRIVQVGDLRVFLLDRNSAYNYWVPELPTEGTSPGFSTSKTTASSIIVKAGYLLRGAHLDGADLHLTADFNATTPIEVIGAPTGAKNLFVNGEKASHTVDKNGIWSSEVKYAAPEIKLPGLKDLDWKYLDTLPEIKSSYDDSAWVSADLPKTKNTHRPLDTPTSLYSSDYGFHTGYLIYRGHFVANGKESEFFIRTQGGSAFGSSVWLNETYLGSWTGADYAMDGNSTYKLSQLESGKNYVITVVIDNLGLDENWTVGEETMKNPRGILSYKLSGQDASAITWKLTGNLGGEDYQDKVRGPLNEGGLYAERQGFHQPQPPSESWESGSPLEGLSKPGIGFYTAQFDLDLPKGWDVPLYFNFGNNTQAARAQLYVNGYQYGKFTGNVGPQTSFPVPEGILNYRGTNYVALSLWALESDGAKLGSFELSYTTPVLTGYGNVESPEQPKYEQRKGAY

[2] = target: T1, β-Galactosidase from Aspergillus oryzae; assay: Lineweaver-Burk, ONPG hydrolysis; type: biochemical; conditions: pH 4.5, 30 °C, mixed, read-out: Ki (mg/ml) (converted)
From the text: Lineweaver-Burk, ONPG hydrolysis on β-Galactosidase from Aspergillus oryzae

[3] = substrate: O=[N+]([O-])c1ccccc1O[C@@H]1O[C@H](CO)[C@H](O)[C@H](O)[C@H]1O; assay: Lineweaver-Burk, ONPG hydrolysis; type: biochemical, Aspergillus oryzae; conditions: pH 4.5, 30 °C, no inhibitor
From the text: Lineweaver-Burk, ONPG hydrolysis on β-Galactosidase from Aspergillus oryzae | Km and Vmax were obtained by a typical double reciprocal Lineweaver Burk plot

With `OC[C@H]1OC(O)[C@H](O)[C@@H](O)[C@H]1O` (stereo partly shown) [Galactose] the IC50 ([1]; ONPG 20 µmol in 4 ml, 0.1 M citrate-phosphate pH 4.5, 30 °C, mixed) was 3.33 mM and the Ki [2] was 10.4 mM.

With `C[C@@H]1O[C@@H](OC[C@H]2O[C@@H](Oc3c(-c4ccc(O)c(O)c4)oc4cc(O)cc(O)c4c3=O)[C@H](O)[C@@H](O)[C@@H]2O)[C@H](O)[C@H](O)[C@H]1O` [Rutin] the IC50 [1] was 0.123 mM.

B1: β-Galactosidase from Aspergillus oryzae (Aspergillus oryzae RIB40) (protein)
chain: T1 sequence (Q2UCU3 19-1005)
notes: commercial enzyme from Sigma-Aldrich, secreted fungal enzyme; construct details not given
B1 showed a Km [3] of 1.310 ± 0.091 mM.
